Source: patent publication US12472160B2, “Modified-release tiopronin compositions, kits and methods for treating cystinuria and related disorders” (ALTIBIO, INC., priority 2017, dated 2025)

Key:
[1] = Total and free plasma tiopronin and urinary tiopronin recovery in Beagle dogs after oral dosing by four regimens (Example 4); format: in vivo; details: for % of the dose (unchanged drug) found in urine / maximum plasma concentrations of free tiopronin / maximum plasma concentrations of total tiopronin: average, n=3 dogs; for free (unbound) tiopronin in plasma over time: FIG. 12
Method: The objective of this study was to evaluate total and free plasma tiopronin, and total urinary tiopronin, in an animal model (male Beagle dogs) following oral administration of tiopronin, according to various dose regimens, to determine whether different regimens, simulating modified release, would improve drug pharmacokinetics. Specifically, tiopronin formulations were administered to deliver 30 mg/kg per dog via single or multiple doses divided over a 12-hour period; and blood and urine samples then collected at different times post-dose.
Tiopronin formulations were administered to provide 30 mg/kg per dog according to four different dosage regimes (Leg 1, Leg 2, Leg 3, and Leg 4), as set forth in the table below. Leg 2, Leg 3, and Leg 4 (also referred to as Q6H, Q3H, and Q2H respectively) were designed to simulate modified-release formulations, in accordance with certain embodiments of the present invention. Following administration, blood and urine samples were collected at the time points, or over the time intervals, also as indicated below.
Preparation of Dosing Formulations: Capsules for Legs 1-4 were prepared and filled on the day of dosing, as follows. For Legs 1 and 2, tiopronin was dry mixed with avicel and mannitol to make a 40:30:30 mixture of tiopronin to avicel to mannitol, respectively; for study Legs 3 and 4, a 20:40:40 mixture of tiopronin to avicel to mannitol, respectively, was prepared. The dry mixes were custom filled with the appropriate amount of powder to deliver the specified doses to each dog based, on their respective body weights.
Animal Dosing and Sample Collection: This non-clinical study followed established practices and standard operating procedures of Absorption Systems and Absorption Systems Inc., as well as the study protocol. Study groups each included three dogs. The dogs were housed one per cage. The dogs were fasted for at least six hours prior to each administration of the formulation. Food was given approximately ten hours post initial dosing. Animals had free access to water throughout the study.
Following dosing, blood and urine samples were collected according to the schedule in Table 1.
Blood samples were collected via direct venipuncture of the jugular vein or other accessible vein of the dog, and placed in chilled polypropylene tubes containing sodium heparin as an anticoagulant. Samples were maintained chilled throughout processing. Blood samples were centrifuged at 4° C. and 3,000 rpm (revolutions per minute) for 5 minutes. The first aliquot of plasma was precipitated with methanol by combining 200 μL of plasma with 600 μL of methanol in a centrifuge tube. The samples were mixed, centrifuged at 3,000 rpm for 5 minutes. The resulting supernatant was decanted into clean, labeled polypropylene tubes. The remaining plasma volume was transferred to a chilled, labeled polypropylene tube, placed on dry ice, and stored in a freezer maintained at −60° C. to −80° C. Following taking each blood sample, 15 mL of water was given to the dog via syringe.
For study Leg 1, pre-dose urine samples were collected via free catch approximately 2 hours pre-dose. For study Legs 2, 3 and 4, pre-dose urine samples were collected via catheter approximately 2 hours pre-dose. Other urine samples were collected via free catch in the cages during the indicated interval, collected into clean bottles, and kept on cold packs. Cold packs were replenished as needed during the day. At the end of each interval, the total volume of urine was collected and recorded. Each sample was well mixed and divided into two aliquots: an approximately 5 mL first aliquot, and a second aliquot of the remaining volume. Additionally, for Leg 4 only, each dog received a 60 mL subcutaneous injection of saline (2×30 mL injections at two different sites) approximately 30 minutes prior to dosing and, if urine was not present in the animal's cage at the end of the final collection interval, the final urine sample was collected by catheter. […]

[2] = Stability of tiopronin in Beagle dog plasma; format: in vitro ADME
Method: (§1) Stability Testing: Finally, short term and long term stability of tiopronin in beagle dog plasma, pre-crashed plasma (plasma supernatant), and urine were assessed using two tiopronin concentrations (50 ng/mL or 500 ng/mL) under each of the following two conditions: (1) storage on the bench top for 4 hours and (2) frozen at −80° C. for up to one month. Samples were considered stable if their concentrations were within ±20% of nominal. These samples met acceptable criteria for stability and results are presented below, in Tables 5, 6, and 7, showing the % tiopronin remaining in Beagle dog plasma (Table 5), plasma supernatant (Table 6), and urine (Table 7).
as §1, with “12, 13,” for “5, 6,”, “14,” for “7,”, “12),” for “5),”, “13),” for “6),”, “14).” for “7).”

[3] = Stability of tiopronin in Beagle dog plasma supernatant (pre-crashed plasma); format: in vitro ADME
Method: as §1
as §1, with “12, 13,” for “5, 6,”, “14,” for “7,”, “12),” for “5),”, “13),” for “6),”, “14).” for “7).”

[4] = Stability of tiopronin in Beagle dog urine; format: in vitro ADME
Excerpt: Samples were considered stable if their concentrations were within ±20% of nominal. These samples met acceptable criteria for stability and results are presented below, in Tables 5, 6, and 7, showing the % tiopronin remaining in Beagle dog plasma (Table 5), plasma supernatant (Table 6), and urine (Table 7).
Samples were considered stable if their concentrations were within ±20% of nominal. These samples met acceptable criteria for stability and results are presented below, in Tables 12, 13, and 14, showing the % tiopronin remaining in Beagle dog plasma (Table 12), plasma supernatant (Table 13), and urine (Table 14).

cystinuria patients = details: cited from earlier work
[5] = Leg 1 (Q12H): PO single 30 mg/kg dose
[6] = Leg 2 (Q6H): PO two 15 mg/kg doses at 0 and 6 h
[7] = Leg 3 (Q3H): PO four 7.5 mg/kg doses at 0, 3, 6, 9 h
[8] = Leg 4: PO six 5 mg/kg doses at 0, 2, 4, 6, 8, 10 h
[9] = 50 ng/mL (low), bench top (RT) for 4 hours
[10] = 50 ng/mL (low), −80° C. freezer for 1 week
[11] = 500 ng/mL (high), bench top (RT) for 4 hours
[12] = 500 ng/mL (high), −80° C. freezer for 1 week

Question: Which results are given for `CC(S)C(=O)NCC(=O)O` (stereo not drawn) [tiopronin, alpha-mercaptopropionylglycine]?
Answer: % of the dose (unchanged drug) found in urine [1, 5]: 19.9±8.51%; maximum plasma concentrations of free tiopronin [1, 5]: 11063 ± 3598 ng/mL; maximum plasma concentrations of total tiopronin [1, 5]: 27900 ± 8122 ng/mL; maximum plasma concentrations of total tiopronin ([1]; Leg 2 (Q6H): PO 30 mg/kg as two 15 mg/kg doses at 0 and 6 h): 23833 ± 5829 ng/mL; % of the dose (unchanged drug) found in urine [1, 6]: 37.5±14.5%; maximum plasma concentrations of free tiopronin [1, 6]: 8177 ± 2237 ng/mL; maximum plasma concentrations of total tiopronin ([1]; Leg 3 (Q3H): PO 30 mg/kg as four 7.5 mg/kg doses at 0, 3, 6, 9 h): 10437 ± 1201 ng/mL; % of the dose (unchanged drug) found in urine [1, 7]: 50.6±14.0%; maximum plasma concentrations of free tiopronin [1, 7]: 3143 ± 624 ng/mL; maximum plasma concentrations of total tiopronin ([1]; Leg 4: PO 30 mg/kg as six 5 mg/kg doses at 0, 2, 4, 6, 8, 10 h): 10297 ± 2199 ng/mL; time of maximum plasma concentrations of free tiopronin [1, 8]: 3 hours post dosing; % of the dose (unchanged drug) found in urine [1, 8]: 32.7±5.90%; maximum plasma concentrations of free tiopronin [1, 8]: 2323 ± 589 ng/mL; free (unbound) tiopronin in plasma over time ([1]; Legs 1 and 2 (Q12H and Q6H)): disappear from the plasma after a short period of time; free (unbound) tiopronin in plasma over time ([1]; Legs 3 and 4 (Q3H and Q2H)): maintained; urinary recovery of tiopronin, comparison of four dosing schedules ([1]; Q3H vs Q12H, Q6H, Q2H, FIG. 13): best tiopronin recovery in urine; % Tiopronin Remaining in Beagle Dog Plasma [2, 9]: 109%; % Tiopronin Remaining in Beagle Dog Plasma [2, 10]: 110%; % Tiopronin Remaining in Beagle Dog Plasma ([2]; 50 ng/mL (low), −80° C. freezer for 2 weeks): 112%; % Tiopronin Remaining in Beagle Dog Plasma ([2]; 50 ng/mL (low), −80° C. freezer for 4 weeks): 95.6%; % Tiopronin Remaining in Beagle Dog Plasma [2, 11]: 87.0%; % Tiopronin Remaining in Beagle Dog Plasma [2, 12]: 95.4%; % Tiopronin Remaining in Beagle Dog Plasma ([2]; 500 ng/mL (high), −80° C. freezer for 2 weeks): 92.8%; % Tiopronin Remaining in Beagle Dog Plasma ([2]; 500 ng/mL (high), −80° C. freezer for 4 weeks): 90.4%; % Tiopronin Remaining in Beagle Dog Plasma Supernatant [3, 9]: 113%; % Tiopronin Remaining in Beagle Dog Plasma Supernatant [3, 10]: 118%; % Tiopronin Remaining in Beagle Dog Plasma Supernatant ([3]; 50 ng/mL (low), −80° C. freezer for 2 week): 105%; % Tiopronin Remaining in Beagle Dog Plasma Supernatant ([3]; 50 ng/mL (low), −80° C. freezer for 4 week): 113%; % Tiopronin Remaining in Beagle Dog Plasma Supernatant [3, 11]: 105%; % Tiopronin Remaining in Beagle Dog Plasma Supernatant [3, 12]: 112%; % Tiopronin Remaining in Beagle Dog Plasma Supernatant ([3]; 500 ng/mL (high), −80° C. freezer for 2 week): 105%; % Tiopronin Remaining in Beagle Dog Plasma Supernatant ([3]; 500 ng/mL (high), −80° C. freezer for 4 week): 116%; % Tiopronin Remaining in Beagle Dog Urine ([4]; High (2500 ng/mL), bench top (RT) for 4 hours): 84.9%; % Tiopronin Remaining in Beagle Dog Urine ([4]; High (2500 ng/mL), −80° C. freezer for 1 week): 107%; % Tiopronin Remaining in Beagle Dog Urine ([4]; High (2500 ng/mL), −80° C. freezer for 2 week): 90.9%; % Tiopronin Remaining in Beagle Dog Urine ([4]; High (2500 ng/mL), −80° C. freezer for 4 week): 96.6%; % Tiopronin Remaining in Beagle Dog Urine ([4]; Low (250 ng/mL), bench top (RT) for 4 hours): 113%; % Tiopronin Remaining in Beagle Dog Urine ([4]; Low (250 ng/mL), −80° C. freezer for 1 week): 106%; % Tiopronin Remaining in Beagle Dog Urine ([4]; Low (250 ng/mL), −80° C. freezer for 2 week): 119%; % Tiopronin Remaining in Beagle Dog Urine ([4]; Low (250 ng/mL), −80° C. freezer for 4 week): 112%; cases/patients in which the drug is discontinued (cystinuria patients; due to adverse reactions, need for frequent dosing, poor efficacy (Pak et al., 1986)): about 30%; cystinuria patients in whom medication fails (continue forming stones) (cystinuria patients; human, in vivo): 85%
